In patent US9688672B2, “3-pyrimidin-4-yl-oxazolidin-2-ones as inhibitors of mutant IDH” (NOVARTIS AG, priority 2013, dated 2017):

Columns and labels:
[1] = Metabolic stability in liver microsomes, Method II; assay type: in vitro ADME
Procedure: The in vitro metabolic stability assay was performed in a 96-deep-well plate with incubation at 37° C. 10 mM DMSO stock solution of the test compound was diluted 1:20 in acetonitrile, followed by an additional 1:10 dilution in 100 mM potassium phosphate buffer (KPi) to yield a final reaction concentration of 1 μM. […] 290 μL of cofactor solution (1.7 mM NADPH, 1.7 mM UDPGA, 3.4 mM MgCl in 100 mM KPi) was added to 200 μL of microsomal protein for a final volume of 490 μL. The reaction was initiated by adding 10 μL of the 50 μM test solution to 490 μL of microsomal protein for a final volume 500 μL enzyme-compound mixture.
At 0, 5, 15 and 30 minute time points in the reaction, reaction aliquots (75 μL) were removed and the reactions were terminated by the addition of 50:50 acetonitrile/methanol solution (75 μL) containing a mass spectrometry internal standard (0.5 μM glyburide). The samples were centrifuged at 4000 RPM for 10 minutes. […] The supernatants solution were analyzed by UPLC/MS/MS for quantitation of parent remaining compound under multiple reactions monitoring mode (MRM) in positive mode. […]

[2] = Metabolic stability in liver microsomes, Method II; assay type: in vitro ADME; remark: listed apart in the source
Procedure: Determination of Metabolic Stability in Liver Microsomes—Method II
The in vitro metabolic stability assay was performed in a 96-deep-well plate with incubation at 37° C. 10 mM DMSO stock solution of the test compound was diluted 1:20 in acetonitrile, followed by an additional 1:10 dilution in 100 mM potassium phosphate buffer (KPi) to yield a final reaction concentration of 1 μM. Immediately prior to the start of the experiment, respective animal or human liver microsomes (male Sprague-dawley rat, male CD-1 mouse, or pooled human liver microsomes) were diluted in 100 mM KPi to 1.25 mg/mL liver microsomal protein. […]
At 0, 5, 15 and 30 minute time points in the reaction, reaction aliquots (75 μL) were removed and the reactions were terminated by the addition of 50:50 acetonitrile/methanol solution (75 μL) containing a mass spectrometry internal standard (0.5 μM glyburide). […] The supernatants solution were analyzed by UPLC/MS/MS for quantitation of parent remaining compound under multiple reactions monitoring mode (MRM) in positive mode. […]
The injection volume was 5 μL. Compounds were detected using Analyst 1.5.1 software which collects intensity data for all fragments related to the molecular weight of the test compound. […]
The intrinsic clearance value, CLint (expressed as μL/min/mg microsomal protein) calculation is shown below: […]

With `C[C@H](Nc1ncc(F)c(N2C(=O)OC[C@@H]2[C@H](C)F)n1)c1cn(-c2ccc(Cl)cc2F)cn1` [Example 477, (R)-3-(2-(((S)-1-(1-(4-chloro-2-fluorophenyl)-1H-imidazol-4-yl)ethyl)amino)-5-fluoropyrimidin-4-yl)-4-((S)-1-fluoroethyl)oxazolidin-2-one] the “Mouse microsomal stability CLint” value [1] was 167.04 µL/min/mg and the “Human microsomal stability CLint” value [2] was 30.44 µL/min/mg.
